Measurements reported in US12630529B2, “GCN2 modulator compounds” (ALESTA THERAPEUTICS BV, priority 2020, dated 2026).

Legend:
HT29 cells = assay: Proliferation and apoptosis of colorectal cancer cells (live-cell imaging); type: cell-based; details: 10 μM, 64 μM arginine, up to 96 hours, vs untreated cells; for rate of apoptotic cell death: YO-PRO-1 uptake
Method: Proliferation and apoptosis of HT29 cells was determined in the presence of Compound 1 and Compound 2. Briefly, cells were seeded in 96-well flat bottom plates at 4,000 cells per well in 100 μL SILAC DMEM Flex media without phenol red, supplemented with 10% fetal bovine serum (FBS), 1 g/L glucose, 2 mM glutamine, 220 μM lysine, containing a physiological concentration of arginine (64 μM). After 24 hours, cells were treated with 10 μM vehicle control (Control; 0.1% DMSO), 10 μM Compound 1, or 10 μM Compound 2, together with 100 nM of fluorescent apoptosis stain (YO-PRO™-1 Iodide; Thermo Fisher) to detect apoptotic cells. Cells were placed in a live-cell imaging and analysis platform (IncuCyte ZOOM®; Essenbio) set up in a humidified incubator at 37° C. and the plates were scanned every 4 hours for up 96 hours, at 10× magnification to determine cell confluence and cell death. Experiments were performed in duplicate with 3 images collected per well and analyzed using live-cell imaging and analysis software (e.g., IncuCyte ZOOM® 2018A software; Essenbio).

GCN2 = GCN2 (Homo sapiens, UniProt Q9P2K8); assay: GCN2 activation induced by arginine starvation (Western blot); type: cell-based; set-up: endogenous in cells; host or cells: HT29 and HCT116; details: HT29 and HCT116 colorectal cancer cell lines, 24 hours
Method: Colorectal cancer cell lines HT29 and HCT116 were seeded at a concentration of 100×10^3 cells per well in 6 well plates, in SILAC DMEM Flex media supplemented with 10% fetal bovine serum, 1 g/L glucose, 2 mM glutamine, 800 μM lysine, and various concentrations of arginine in the absence or presence of Compound 1 and Compound 2 GCN2 inhibitors. Cells were cultured for 24 hours.
Following 24 hours of culture, expression of phosphorylated GCN2 (P-GCN2) and alpha-actinin loading control was assessed by Western blot. Briefly, cells were washed with cold PBS and dissolved in cell lysis buffer containing 1% Triton, supplemented with protease inhibitors and phosphatase inhibitors. All lysates were freshly prepared and normalized using a BCA protein assay before addition of LDS sample buffer and denaturation by boiling the samples for 5 minutes at 95° C. Proteins were separated on 4-12% Bis-Tris protein gels in MOPS SDS buffer and electrophoresis was performed (e.g., Novex NuPAGE® Gel Electrophoresis Systems; Invitrogen). Transfer of the protein samples was performed (e.g., using the Mini Trans-Blot Cell® system; Bio-Rad) with 0.45 μM pore Nitrocellulose/Filter paper sandwiches and transfer buffer at 350 mA for 90 minutes at 4° C. Membranes were blocked for 1 hour with 4% BSA in TBS-Tween at room temperature and incubated with 1:1,000 dilutions of anti-GCN2, phospho-GCN2, α-actinin1, and/or p21 (Waf/Cip1) antibodies overnight at 4° C. Afterwards, membranes were washed 3 times with TBS-Tween and incubated with HRP-conjugated secondary antibodies at 1:20,000 dilution for 1 hour at room temperature.

GCN2, sequence (Q9P2K8 whole entry): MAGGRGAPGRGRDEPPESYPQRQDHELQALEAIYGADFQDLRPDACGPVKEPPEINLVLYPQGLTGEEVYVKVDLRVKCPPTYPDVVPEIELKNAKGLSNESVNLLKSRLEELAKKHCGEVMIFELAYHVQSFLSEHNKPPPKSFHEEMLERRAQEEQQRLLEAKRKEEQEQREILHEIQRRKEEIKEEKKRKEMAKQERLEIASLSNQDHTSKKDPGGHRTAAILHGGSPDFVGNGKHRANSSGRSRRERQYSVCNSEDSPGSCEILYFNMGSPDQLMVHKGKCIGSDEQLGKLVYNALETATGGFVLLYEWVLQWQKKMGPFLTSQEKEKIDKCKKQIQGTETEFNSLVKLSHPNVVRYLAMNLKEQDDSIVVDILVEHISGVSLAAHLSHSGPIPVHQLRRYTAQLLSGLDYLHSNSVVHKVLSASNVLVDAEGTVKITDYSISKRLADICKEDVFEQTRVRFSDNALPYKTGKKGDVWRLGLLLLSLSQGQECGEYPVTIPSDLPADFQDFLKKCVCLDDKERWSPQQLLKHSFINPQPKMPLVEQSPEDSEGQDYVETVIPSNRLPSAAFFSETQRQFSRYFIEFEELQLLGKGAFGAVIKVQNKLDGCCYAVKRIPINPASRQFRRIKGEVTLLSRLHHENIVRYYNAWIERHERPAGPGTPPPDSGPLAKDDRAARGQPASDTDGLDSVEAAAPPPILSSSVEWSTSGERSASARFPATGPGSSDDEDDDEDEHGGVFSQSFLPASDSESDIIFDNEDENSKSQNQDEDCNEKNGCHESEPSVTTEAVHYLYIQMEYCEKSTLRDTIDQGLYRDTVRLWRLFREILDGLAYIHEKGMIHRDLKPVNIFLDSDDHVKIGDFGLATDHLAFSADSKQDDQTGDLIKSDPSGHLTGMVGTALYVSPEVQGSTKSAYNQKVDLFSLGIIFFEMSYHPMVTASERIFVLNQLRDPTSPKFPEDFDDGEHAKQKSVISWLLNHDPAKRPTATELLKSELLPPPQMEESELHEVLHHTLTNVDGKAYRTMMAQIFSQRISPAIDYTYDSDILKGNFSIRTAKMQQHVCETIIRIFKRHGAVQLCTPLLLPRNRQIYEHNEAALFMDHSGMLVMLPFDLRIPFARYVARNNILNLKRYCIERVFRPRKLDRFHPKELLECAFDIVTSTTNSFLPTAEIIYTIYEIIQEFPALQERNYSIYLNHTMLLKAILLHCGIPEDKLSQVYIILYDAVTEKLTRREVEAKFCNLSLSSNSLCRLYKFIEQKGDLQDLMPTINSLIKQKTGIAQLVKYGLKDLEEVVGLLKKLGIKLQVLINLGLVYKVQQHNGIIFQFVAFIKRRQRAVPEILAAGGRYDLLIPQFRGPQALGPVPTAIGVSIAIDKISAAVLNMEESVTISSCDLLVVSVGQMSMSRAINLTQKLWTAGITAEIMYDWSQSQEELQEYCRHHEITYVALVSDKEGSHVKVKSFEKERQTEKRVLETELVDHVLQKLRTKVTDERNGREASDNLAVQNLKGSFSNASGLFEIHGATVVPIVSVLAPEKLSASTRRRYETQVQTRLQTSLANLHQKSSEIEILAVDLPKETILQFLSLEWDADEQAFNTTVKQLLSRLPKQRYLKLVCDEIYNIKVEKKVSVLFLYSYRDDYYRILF

p21 expression (GCN2) | Compound | rate of apoptotic cell death (HT29 cells) | cell density / confluence (HT29 cells) | activation of GCN2 (P-GCN2 expression) upon arginine depletion (GCN2)
p21 expression is induced | Nc1ncc2cc(-c3c(F)ccc(NS(=O)(=O)c4cc(Cl)ccc4Cl)c3F)ccc2n1 [Compound 2] | increased rate of apoptotic cell death | grew less dense | prevented the activation of GCN2 upon arginine depletion
p21 expression is induced | COc1ncc(Cl)cc1S(=O)(=O)Nc1ccc(F)c(-c2ccc3nc(N)ncc3c2)c1F [Compound 1] | increased rate of apoptotic cell death | grew less dense | prevented the activation of GCN2 upon arginine depletion
